Test results published in patent US12187715B2, “Small molecule activators of Tie-2” (EyePoint Pharmaceuticals, Inc., priority 2019, dated 2025).
Where “and” joins values, the source holds several entries; their conditions need not be identical. Identical values can stand only once.

Experiments:
[1] = Physical stability (appearance) of the aqueous solutions standing at room temperature; type: physicochemical; settings: for Gelation or precipitation of undiluted solution: throughout the 4-week study period (Compound 2: over 5 weeks); for Appearance of solution: undiluted
[2] = Syringability testing (200 g weight on BD 1-mL syringe plunger, 27 G needle); type: physicochemical; settings: for Syringability of the saturated solutions (in words): undiluted solutions
Procedure: Syringability testing was carried out by applying 200 g of weight on top of a BD 1-mL syringe plunger and measuring the time required to expel 1 mL of the saturated solutions through a 27 G needle. The times are recorded in TABLE 4. At T=0, 43 seconds were required to expel 1 mL of Compound 2, while 8 seconds were required to expel 1 mL of Compound 4. In contrast, approximately 5 minutes were required to expel only 0.1 mL of Compound 3, based on the very high viscosity of the solution relative to that of the other two.
Syringability test results of the 50% diluted solutions (TABLE 5) indicated a slight increase in viscosity (syringability test for water was 10 sec). All three solutions remained easily syringable.

[3] = HPLC purity analyses of aqueous solutions over time at room temperature (chemical stability); type: physicochemical
phospho-Akt1 (pAkt) = test: Phospho-Akt activation assay in human umbilical vein endothelial cells (Western blot); type: cell-based; settings: for Relative potencies for activation of pAkt: HUVECs, 3, 10 and 30 μM
Procedure: The ability of the small molecule analogues as shown in EXAMPLES 1-3 to stimulate production of phospho-Akt1 (pAkt) was tested. Akt plays a critical role in controlling cell survival and apoptosis, and Akt phosphorylation is increased by the activation of Tie-2. Akt activation can be detected by an antibody that recognizes phosphorylation on the serine 473 residue on Akt.
HUVECs were seeded at 500,000 cells/mL in chemically-defined basal media, and supplemented with distinct growth factors (EGM-2). The following growth factors were required for survival and normal phenotypic expression of endothelial characteristics: fetal bovine serum 2%, hydrocortisone, human fibroblast growth factor-B, vascular endothelial growth factor, recombinant insulin growth factor R3, ascorbic acid, human epidermal growth factor, gentamicin sulfate, amphotericin B, and heparin. Cells were derived from one donor, cultivated in 10 cm dishes, and expanded upon reaching 90% confluence. After three passages, the cells were expanded and ready for testing.
The cells were seeded at 25,000 cells/mL in 6-well plates, and covered with 2 mL of complete media. The cells were fed on day 2 of culture with 2 mL of fresh EGM-2 media. 72 hours after plating, the cells were serum starved by rinsing twice with 2 mL of sterile phosphate buffered saline, and then placed at 37° C. for 3 hours in the presence of basal EGM-2 media (1.5 mL/well without growth factors). The serum starvation allowed the cells to become quiescent.
Compounds 2-4 were dissolved in distilled deionized water at the following concentrations: • Compound 2 (Molecular weight: 622.7): 31 mg/ml. • Compound 3 (Molecular weight: 622.7): 26 mg/ml. • Compound 4 (Molecular weight: 636.7): 32 mg/ml.
All compounds were stored at 4° C. […] Stock concentrations of the above molecules were made at a final working concentration of 1 mM. Specific microliter volumes of the working concentration were added to each 6 well plate at the following concentrations: 3, 10, and 30 micromolar (μM). Cells were treated for 30 minutes.
10× cell lysis buffer was diluted fresh with dH2O. The 1× cell lysis buffer contained: 20 mM Tris-HCl (pH 7.5), 150 mM NaCl, 1 mM Na2EDTA, 1 mM EGTA, 1% Triton, 2.5 mM sodium pyrophosphate, 1 mM β-glycerophosphate, 1 mM Na3VO4, 1 μg/ml leupeptin, and 1 mM PMSF. Immediately before use, 1 mM PMSF was prepared by diluting from a stock of 1 M PMSF made up in DMSO. In addition, a 1× concentration of a Halt protease & phosphatase inhibitor cocktail was included. At the end of the 30 minute treatment, the media was discarded from the cell culture wells by shaking out, and the remaining media was aspirated off the wells. Ice-cold lysis buffer was added at 140 μL/well, and the culture was placed on ice or in a cold room for 30 minutes while rocking. Cell lysates were collected using a cell scraper, placed in microfuge tubes, and stored at −80° C. The levels of protein were quantitated using a microtiter plate BCA protein assay.
2× Laemmli sample buffer was added in equal volume to the […] cell lysis buffer, which contained the lysed endothelial cells. The solution was heated at 100° C. for 5 minutes and then sonicated for 10 seconds. After sonication, the lysates were spun by centrifuge at 4° C. for 5 minutes at 17,000 rpm. 70-100 μg of protein calculated from BCA assay prior to addition of 2× Laemmli sample were added per well of an 8% polyacrylamide gel.
Electrophoresis was performed at 150 volts for approximately 90 minutes at room temperature with 1× Laemmli running buffer. The proteins from the gel were transferred to nitrocellulose at 100 volts for 45 minutes on ice.
The nitrocellulose membranes were removed quickly without drying and placed in phosphate buffered saline (pH 7.3) with 1% nonfat dried milk. The membranes were blocked in the milk solution while rocking for 2 hours at room temperature or overnight at 4° C. […]

[4] = 50% diluted solution, T = 2 week
[5] = 50% diluted solution, T = 3 week
[6] = 50% diluted solution, T = 4 week
[7] = 50% diluted solution, T = 2 day
[8] = 50% diluted solution, T = 3 day
[9] = 50% diluted solution, T = 4 day
[10] = 50% diluted solution, T = 7 day
[11] = saturated (undiluted) solution, T = 0
[12] = saturated (undiluted) solution, T = 1 day
[13] = saturated (undiluted) solution, T = 2 day
[14] = saturated (undiluted) solution, T = 3 day
[15] = 50% diluted samples, room temperature, T = 4 weeks
[16] = undiluted samples, T = 0 (dry sample)
[17] = undiluted samples, room temperature, T = 5 weeks
[18] = undiluted samples, room temperature, T = 1 day

| Compound | Gelation or precipitation of undiluted solution [1] | Appearance of solution ([1]; T = 0) | Appearance of solution ([1]; T = 2 week) | Appearance of solution ([1]; T = 3 week) | Appearance of solution ([1]; T = 4 week) | Appearance of solution ([1]; T = 1 day) | Appearance of solution ([1]; T = 2 day) | Appearance of solution ([1]; T = 3 day) | Appearance of solution ([1]; T = 4 day) | Appearance of solution ([1]; T = 5 day) | Appearance of solution ([1]; T = 6 day) | Syringability: time to expel 1 mL [2, 4] [s] | Syringability: time to expel 1 mL [2, 5] [s] | Syringability: time to expel 1 mL [2, 6] [s] | Syringability: time to expel 1 mL [2, 7] [s] | Syringability: time to expel 1 mL [2, 8] [s] | Syringability: time to expel 1 mL [2, 9] [s] | Syringability: time to expel 1 mL [2, 10] [s] | Syringability: time to expel 1 mL [2, 11] [s] | Syringability: time to expel 1 mL [2, 12] [s] | further results |
| --- | --- | --- | --- | --- | --- | --- | --- | --- | --- | --- | --- | --- | --- | --- | --- | --- | --- | --- | --- | --- | --- |
| COC(=O)N(C)[C@@H](Cc1ccccc1)C(=O)N[C@@H](Cc1ccc(NS(=O)(=O)[O-])cc1)c1csc(-c2cccs2)n1.[Na+] [Compound 2, sodium (4-{(S)-2-{(S)-2-[(methoxycarbonyl)(methyl)amino]-3-phenylpropanamido}-2-[2-(thiophen-2-yl)thiazol-4-yl]ethyl}phenyl)sulfamate] | gradually developed a precipitate | Clear | Precipitate | Precipitate | Precipitate | Clear | Clear | Slightly hazy | Small precipitate | Small precipitate | Precipitate | 14 | 11 | 11 | 10 | 15 | 18 | 15 | 43 | 52 | Time until precipitation was observed ([1]; 50% diluted solution): about 2.5 months; Time until solution started to show haziness ([1]; undiluted solution): 3 days; Syringability: time to expel 1 mL [2, 13]: 65 s; Syringability: time to expel 1 mL [2, 14]: 58 s; Syringability of the saturated solutions (in words) [2]: syringable; HPLC purity [3, 15]: 82%; HPLC purity ([3]; 50% diluted samples, room temperature, T = 6 weeks (reanalysis)): 96.9% and 96.95%; HPLC purity [3, 16]: 99.59%; HPLC purity [3, 17]: 88.99%; HPLC purity ([3]; undiluted samples, room temperature, T = 7 weeks (reanalysis)): 93.9% and 93.93%; HPLC purity [3, 18]: 98.7%; pAkt signal above control (phospho-Akt1 (pAkt); HUVECs, 30 μM, 30 minutes treatment): 300%; Relative potencies for activation of pAkt (phospho-Akt1 (pAkt)): Compound 2>Compound 4>Compound 3; Levels of pAkt (in words) (phospho-Akt1 (pAkt); HUVECs, sets statement at 30 μM): Noticeable and dose-dependent |
| COC(=O)N(C)[C@@H](Cc1ccccc1)C(=O)N(C)[C@@H](Cc1ccc(NS(=O)(=O)[O-])cc1)c1csc(-c2cccs2)n1.[Na+] [Compound 4, sodium (4-{(S)-2-{(S)-2-[(methoxycarbonyl)(methyl)amino]-N-methyl-3-phenylpropanamido}-2-[2-(thiophen-2-yl)thiazol-4-yl]ethyl}phenyl)sulfamate] | No gelation or precipitation | Clear | Clear | Clear | Clear | Clear | Clear | Clear | Clear | Clear | Clear | 13 | 13 | 14 | 12 | 14 | 15 | 12 | 8 | 12 | Syringability: time to expel 1 mL ([2]; saturated (undiluted) solution, T = 2 week): 13 s; Syringability: time to expel 1 mL ([2]; saturated (undiluted) solution, T = 3 week): 12 s; Syringability: time to expel 1 mL ([2]; saturated (undiluted) solution, T = 4 week): 13 s; Syringability: time to expel 1 mL [2, 13]: 15 s; Syringability: time to expel 1 mL [2, 14]: 12 s; Syringability: time to expel 1 mL ([2]; saturated (undiluted) solution, T = 4 day): 13 s; Syringability: time to expel 1 mL ([2]; saturated (undiluted) solution, T = 5 day): 14 s; Syringability: time to expel 1 mL ([2]; saturated (undiluted) solution, T = 6 day): 14 s; Syringability of the saturated solutions (in words) [2]: syringable; HPLC purity [3, 15]: 97.69%; HPLC purity [3, 16]: 98.72%; HPLC purity [3, 17]: 96.53%; HPLC purity [3, 18]: 98.2%; Relative potencies for activation of pAkt (phospho-Akt1 (pAkt)): Compound 2>Compound 4>Compound 3 |
